Assay results: patent US8968750B2, “Malaria vaccines based on apicomplexan ferlins, ferlin-like proteins and other C2-domain containing proteins” (Ruprecht-Karls-Universität Heidelberg, priority 2009, dated 2015)

Test system: peripheral blood mononuclear cells (PBMC)
Assay: cultured IFNγ ELISpot over 10 days with PBMCs stimulated with Pf Ferlin epitopes
Format: cell-based, human
Procedure: Each epitope was tested both individually and in pools of epitopes, which is summarised in this figure. Freshly isolated PBMCs from the blood of malaria-exposed and non-exposed (naïve) individuals were stimulated with the Pf Ferlin epitopes. The secretion of IFNγ was analysed by ELISpot. Pf AMA1, a known malarial blood stage antigen, was used as a positive control (FIG. 12B).
In order to investigate the presence of Pf Ferlin-specific T cells in malaria-exposed individuals, T-cell responses to Pf Ferlin peptides (NLLDPLVVV (SEQ ID NO:4), YLYVNIHKI (SEQ ID NO:5), LLLEGNFYL (SEQ ID NO:6), KLIPVNYEL (SEQ ID NO:7), YLYEKQQEL (SEQ ID NO:8), ILIPSLPLI (SEQ ID NO:9)) were tested in semi-immune Kenyan adults in collaboration with Dr. Britta urban at the Kenyan Medical Research Institute-Wellcome Trust Research Programme (KEMRI). All adults are resident in Junju District, about 60 km north of Mombasa at the Kenyan coast. The area has two high transmission seasons but low-level transmission occurs all year round (infectious bites per year:23-53) (Mwangi et al., 2005).
In order to determine the production of antigen-specific IFNγ by activated peripheral blood mononuclear cells (PBMC), cultured ELISpot analysis was carried out over a period of 10 days in malaria-exposed adults and malaria-naïve individuals. […] Furthermore, when studying the production of antigen-specific IFN-γ by activated peripheral blood mononuclear cells (PBMC) in 12 malaria-exposed adults and 5 malaria-naive individuals, Pf Ferlin-specific T cells were detected to at least one peptide in 4 out of 12 and to more than one peptide in 3 out of 12 malaria-exposed adults (Table 2).

For “ILIPSLPLI (listed as Plasmodium falciparum) [Epitope 6]”, the “INFγ response to individual peptide (responder)” value (from here on “INFγ response”) (Patient Ad) was “no (An INFγ response above SFC 500 identified the patient as a responder.)”, the “INFγ response” value (Patient Fr) was “no (An INFγ response above SFC 500 identified the patient as a responder.)” and the “INFγ response” value (Patient JA029) was “no (An INFγ response above SFC 500 identified the patient as a responder.)”. The “INFγ response” value (Patient JA030) was “yes (An INFγ response above SFC 500 identified the patient as a responder.)”, the “INFγ response” value (Patient JA046) was “no (An INFγ response above SFC 500 identified the patient as a responder.)” and the “INFγ response” value (Patient JA047) was “no (An INFγ response above SFC 500 identified the patient as a responder.)”. The “INFγ response” value (Patient JA066) was “no (An INFγ response above SFC 500 identified the patient as a responder.)”, the “INFγ response” value (Patient JA067) was “no (An INFγ response above SFC 500 identified the patient as a responder.)” and the “INFγ response” value (Patient JA086) was “no (An INFγ response above SFC 500 identified the patient as a responder.)”.

For “KLIPVNYEL (listed as Plasmodium falciparum) [Epitope 4]”, the “INFγ response” value (Patient Ad) was “no (An INFγ response above SFC 500 identified the patient as a responder.)”, the “INFγ response” value (Patient Fr) was “no (An INFγ response above SFC 500 identified the patient as a responder.)” and the “INFγ response” value (Patient JA006) was “no (An INFγ response above SFC 500 identified the patient as a responder.)”. For the same sequence, the “INFγ response” value (Patient JA007) was “no (An INFγ response above SFC 500 identified the patient as a responder.)”, the “INFγ response” value (Patient JA029) was “no (An INFγ response above SFC 500 identified the patient as a responder.)” and the “INFγ response” value (Patient JA030) was “yes (An INFγ response above SFC 500 identified the patient as a responder.)”. The “INFγ response” value (Patient JA046) was “no (An INFγ response above SFC 500 identified the patient as a responder.)”, the “INFγ response” value (Patient JA047) was “no (An INFγ response above SFC 500 identified the patient as a responder.)” and the “INFγ response” value (Patient JA066) was “no (An INFγ response above SFC 500 identified the patient as a responder.)”. For the same sequence, the “INFγ response” value (Patient JA067) was “no (An INFγ response above SFC 500 identified the patient as a responder.)” and the “INFγ response” value (Patient JA086) was “yes (An INFγ response above SFC 500 identified the patient as a responder.)”.

In the case of “LLLEGNFYL (listed as Plasmodium falciparum) [Epitope 3]”, the “INFγ response” value (Patient Ad) is reported as “no (An INFγ response above SFC 500 identified the patient as a responder.)”, the “INFγ response” value (Patient Fr) is reported as “no (An INFγ response above SFC 500 identified the patient as a responder.)” and the “INFγ response” value (Patient JA006) is reported as “no (An INFγ response above SFC 500 identified the patient as a responder.)”. The “INFγ response” value (Patient JA029) was “yes (An INFγ response above SFC 500 identified the patient as a responder.)”, the “INFγ response” value (Patient JA030) was “no (An INFγ response above SFC 500 identified the patient as a responder.)” and the “INFγ response” value (Patient JA046) was “no (An INFγ response above SFC 500 identified the patient as a responder.)”. For the same sequence, the “INFγ response” value (Patient JA047) was “no (An INFγ response above SFC 500 identified the patient as a responder.)”, the “INFγ response” value (Patient JA066) was “no (An INFγ response above SFC 500 identified the patient as a responder.)” and the “INFγ response” value (Patient JA067) was “no (An INFγ response above SFC 500 identified the patient as a responder.)”. For the same sequence, the “INFγ response” value (Patient JA086) was “yes (An INFγ response above SFC 500 identified the patient as a responder.)”.

For “NLLDPLVVV (listed as Plasmodium falciparum) [Epitope 1]”, the “INFγ response” value (Patient Ad) was “yes (An INFγ response above SFC 500 identified the patient as a responder.)”, the “INFγ response” value (Patient Fr) was “no (An INFγ response above SFC 500 identified the patient as a responder.)” and the “INFγ response” value (Patient JA006) was “no (An INFγ response above SFC 500 identified the patient as a responder.)”. For the same sequence, the “INFγ response” value (Patient JA007) was “no (An INFγ response above SFC 500 identified the patient as a responder.)”, the “INFγ response” value (Patient JA029) was “yes (An INFγ response above SFC 500 identified the patient as a responder.)” and the “INFγ response” value (Patient JA030) was “no (An INFγ response above SFC 500 identified the patient as a responder.)”. For the same sequence, the “INFγ response” value (Patient JA046) was “no (An INFγ response above SFC 500 identified the patient as a responder.)”, the “INFγ response” value (Patient JA047) was “no (An INFγ response above SFC 500 identified the patient as a responder.)” and the “INFγ response” value (Patient JA066) was “no (An INFγ response above SFC 500 identified the patient as a responder.)”. For the same sequence, the “INFγ response” value (Patient JA067) was “no (An INFγ response above SFC 500 identified the patient as a responder.)”, the “INFγ response” value (Patient JA086) was “no (An INFγ response above SFC 500 identified the patient as a responder.)” and the “INFγ response” value (Patient JA087) was “no (An INFγ response above SFC 500 identified the patient as a responder.)”.

In the case of “YLYEKQQEL (listed as Plasmodium falciparum) [Epitope 5]”, the “INFγ response” value (Patient Ad) is reported as “no (An INFγ response above SFC 500 identified the patient as a responder.)”, the “INFγ response” value (Patient Fr) is reported as “no (An INFγ response above SFC 500 identified the patient as a responder.)” and the “INFγ response” value (Patient JA006) is reported as “no (An INFγ response above SFC 500 identified the patient as a responder.)”. The “INFγ response” value (Patient JA029) was “no (An INFγ response above SFC 500 identified the patient as a responder.)”, the “INFγ response” value (Patient JA030) was “yes (An INFγ response above SFC 500 identified the patient as a responder.)” and the “INFγ response” value (Patient JA046) was “no (An INFγ response above SFC 500 identified the patient as a responder.)”. The “INFγ response” value (Patient JA047) was “no (An INFγ response above SFC 500 identified the patient as a responder.)” and the “INFγ response” value (Patient JA086) was “no (An INFγ response above SFC 500 identified the patient as a responder.)”.

With “YLYVNIHKI (listed as Plasmodium falciparum) [Epitope 2]” the “INFγ response” value (Patient Ad) was “no (An INFγ response above SFC 500 identified the patient as a responder.)”, the “INFγ response” value (Patient Fr) was “no (An INFγ response above SFC 500 identified the patient as a responder.)” and the “INFγ response” value (Patient JA006) was “no (An INFγ response above SFC 500 identified the patient as a responder.)”. The “INFγ response” value (Patient JA029) was “yes (An INFγ response above SFC 500 identified the patient as a responder.)”, the “INFγ response” value (Patient JA030) was “no (An INFγ response above SFC 500 identified the patient as a responder.)” and the “INFγ response” value (Patient JA046) was “no (An INFγ response above SFC 500 identified the patient as a responder.)”. The “INFγ response” value (Patient JA047) was “no (An INFγ response above SFC 500 identified the patient as a responder.)”, the “INFγ response” value (Patient JA066) was “no (An INFγ response above SFC 500 identified the patient as a responder.)” and the “INFγ response” value (Patient JA067) was “no (An INFγ response above SFC 500 identified the patient as a responder.)”. The “INFγ response” value (Patient JA086) was “no (An INFγ response above SFC 500 identified the patient as a responder.)”.
